From BindingDB's records for doi:10.1021/jm00151a024 (1986) come the findings set out here.

The experiment in a line: Apparent binding affinity for Alanine racemase from Pseudomonas aeruginosa.

Consider `NC(CCl)P(=O)(O)O` (configuration not stated) [(1-Amino-2-chloro-ethyl)-phosphonic acid], for which the Ki turned out to be 820 µM.
Next, `NC(C(Cl)Cl)P(=O)(O)O` (configuration not stated) [(1-Amino-2,2-dichloro-ethyl)-phosphonic acid]: 2000 µM.
